From US20250011326A1, “FUSED HETEROCYCLIC DERIVATIVES AND THEIR USE IN THE TREATMENT OF HBV INFECTION” (Janssen Sciences Ireland Unlimited Company, priority 2021, published 2025) come the findings set out here.

The nature of series [1]: Cytotoxicity, cell viability by ATPlite Luminescence Assay. The class given is cell-based, human. The following applies: human, HepG2 or HepG2 117 cells, 3-days incubation (unless marked *), mean value. As for the experimental part: (§1) Cytotoxicity of the compounds was tested using HepG2 or HepG2 117 cells, incubated for 3 or 4 days in the presence of compounds. The viability of the cells was assessed using the PERKIN ELMER ATPlite Luminescence Assay System.”
For orientation: ATP-based viability assays read luminescence as a measure of living cells.

The subject of another series is HBV. Briefly: Anti-HBV activity: intracellular HBV DNA by real-time PCR in HepG2.117 cell line. The following applies: HepG2.117 cells, HBV replication induced (absence of doxycycline), 3 days of treatment, mean value. The format is cell-based, Hepatitis B virus. As for the experimental part:
The anti HBV activity was measured using the HepG2.117 cell line, a stable, inducibly HBV producing cell line, which replicates HBV in the absence of doxycycline (Tet-off system). The HepG2 cell line is available from ATCCR under number HB-8065 Transfection of the HepG2 cell line can be as described in Sun and Nassal 2006 Journal of Hepatology 45 (2006) 636-645 “Stable HepG2- and Huh7-based human hepatoma cell lines for efficient regulated expression of infectious hepatitis B virus”.
For the antiviral assay, HBV replication was induced, followed by a treatment with serially diluted compound in 96-well plates. After 3 days of treatment, the antiviral activity was determined by quantification of intracellular HBV DINA using real-time PCR and an HBV specific primer set and probe.

A further series deals with HepG2 or HepG2 117 cells. Briefly: Cytotoxicity, cell viability by ATPlite Luminescence Assay. The following applies: 3-days incubation (unless marked *), mean value. The class given is cell-based, human. The procedure:
as §1

The mark [2] stands for this setting: Hepatitis B virus, HepG2.117, 72 h.

Where only a bound is given, the exact number is not on record here.

The term CC50 denotes the concentration giving 50% cytotoxicity. Read a high CC50 as lower toxicity to the cells. The EC50 is the concentration at which the effect is half-maximal. Regarding `CC(=O)NC[C@@H]1Cn2nc3c(c2C(=O)N1[C@@H](C)c1ccc(OC(F)F)cc1)CN(C(=O)c1ccc(Cl)c(C#N)c1)[C@H](C)C3` (single isomer, unassigned) [Compound 1B, N-(((3R,8R*)-2-(4-chloro-3-cyanobenzoyl)-9-((S*)-1-(4-(difluoromethoxy)phenyl)ethyl)-3-methyl-10-oxo-1,2,3,4,7,8,9,10-octahydropyrido[4′,3′:3,4]pyrazolo[1,5-a]pyrazin-8-yl)methyl)acetamide], the CC50 at 3 days in series [1] was above 50 µM. This molecule also displayed an EC50 with HBV of 1.48 µM.
As to `CC(=O)NC[C@@H]1Cn2nc3c(c2C(=O)N1[C@@H](C)c1ccc(OC(F)F)cc1)CN(C(=O)c1ccc(Cl)c(C#N)c1)[C@H](C)C3` (single isomer, unassigned) [Compound 1D, N-(((3R,8S*)-2-(4-chloro-cyanobenzoyl)-9-((S*)-1-(4-(difluoromethoxy)phenyl)ethyl)-3-methyl-10-oxo-1,2,3,4,7,8,9,10-octahydropyrido[4′,3′:3,4]pyrazolo[1,5-a]pyrazin-8-yl)methyl)acetamide], the CC50 in the series with HepG2 or HepG2 117 cells is above 50 µM. The EC50 in the series with HBV stood at 0.491 µM.
On to `CNC(=O)[C@@H]1Cn2nc3c(c2C(=O)N1[C@@H](C)c1ccc(OC(F)F)cc1)CN(C(=O)c1ccc(Cl)c(C#N)c1)[C@H](C)C3` (single isomer, unassigned) [Compound 2B, (3R,8S*)-2-(4-chloro-3-cyanobenzoyl)-9-((S*)-1-(4-(difluoromethoxy)phenyl)ethyl)-N,3-dimethyl-10-oxo-1,2,3,4,7,8,9,10-octahydropyrido[4′,3′:3,1]pyrazolo[1,5-a]pyrazine-8-carboxamide], for which, in series [1], the half-maximal cytotoxic concentration (CC50) at 3 days was above 50 µM. Further, the EC50 with HBV (setting [2]) is 0.183 µM.
Taken in the same sequence, the figures for `CC1Cn2nc3c(c2C(=O)N1Cc1ccc(OC(F)F)cc1)CN(C(=O)c1ccc(Cl)c(Cl)c1)[C@H](C)C3` (single isomer, unassigned) [Compound 6A, (3R,8R*)-2-(3,4-dichlorobenzoyl)-9-(4-(difluoromethoxy)benzyl)-3,8-dimethyl-1,2,3,4,8,9-hexahydropyrido[4′,3′:3,4]pyrazolo[1,5-a]pyrazin-10(7H)-one] were 4.5 µM and 0.032 µM.
For `CC(c1ccc(OC(F)F)cc1)n1ncn2nc3c(c2c1=O)CN(C(=O)c1ccc(Cl)c(C(F)(F)F)c1)[C@H](C)C3` (single isomer, unassigned) [Compound 7A, (R)-9-(4-Chloro-3-(trifluoromethyl)benzoyl)-2-((R*)-1-(4-(difluoromethoxy)phenyl)ethyl)-8-methyl-7,8,9,10-tetrahydropyrido[4′,3′:3,4]pyrazolo[1,5-d][1,2,4]triazin-1(2H)-one] the same measures were 46.3 µM and 0.194 µM.
Taken in the same sequence, the figures for `CC(c1ccc(OC(F)F)cc1)n1ncn2nc3c(c2c1=O)CN(C(=O)c1ccc(Cl)c(Cl)c1)[C@H](C)C3` (single isomer, unassigned) [Compound 8A, (R)-9-(3,4-Dichlorobenzoyl)-2-((R*)-1-(4-(difluoromethoxy)phenyl)ethyl)-8-methyl-7,8,9,10-tetrahydropyrido[4′,3′:3,4]pyrazolo[1,5-d][1,2,4]triazin-1(2H)-one] were above 50 µM and 0.067 µM.
Molecule `CC(c1ccc(OC(F)F)cc1)n1ncn2nc3c(c2c1=O)CN(C(=O)c1ccc(Cl)c(C#N)c1)[C@H](C)C3` (single isomer, unassigned) [Compound 9B, 2-chloro-5-((R)-2-((S*)-1-(4-(difluoromethoxy)phenyl)ethyl)-8-methyl-1-oxo-1,2,7,8,9,10-hexahydropyrido[4′,3′:3,4]pyrazolo[1,5-d][1,2,4]triazine-9-carbonyl)benzonitrile] showed a CC50 at 3 days in series [1] above 50 µM. Besides, the midpoint of the response in the series on HBV (setting [2]), the EC50, lay at 0.13 µM.
Turning to `CC(c1ccc(OC(F)F)cc1)n1ccn2nc3c(c2c1=O)CN(C(=O)c1ccc(Cl)c(Cl)c1)[C@H](C)C3` (single isomer, unassigned) [Compound 10A, (R)-2-(3,4-dichlorobenzoyl)-9-((R*)-1-(4-(difluoromethoxy)phenyl)ethyl)-3-methyl-1,2,3,4-tetrahydropyrido[4′,3′:3,4]pyrazolo[1,5-a]pyrazin-10(9H)-one], the CC50 at 3 days in series [1] was 32.8 µM. Moreover, the EC50 with HBV was 0.072 µM.
As to `CC(c1ccc(OC(F)F)cc1)n1ccn2nc3c(c2c1=O)CN(C(=O)c1ccc(Cl)c(Cl)c1)[C@H](C)C3` (single isomer, unassigned) [Compound 10B, (R)-2-(3,4-dichlorobenzoyl)-9-((S*)-1-(4-(difluoromethoxy)phenyl)ethyl)-3-methyl-1,2,3,4-tetrahydropyrido[4′,3′:3,4]pyrazolo[1,5-a]pyrazin-10(9H)-one], the CC50 with HepG2 or HepG2 117 cells was above 50 µM. Also, a half-maximal effect in the series on HBV (EC50) was put at 0.294 µM.
Molecule `CNC(=O)[C@H]1CN([C@@H](C)c2ccc(OC(F)F)cc2)C(=O)c2c3c(nn21)C[C@@H](C)N(C(=O)c1ccc(Cl)c(C#N)c1)C3` (single isomer, unassigned) [Compound 11B, (3R,7R*)-2-(4-chloro-3-cyanobenzoyl-9-((S*)-1-(4-(difluoromethoxy)phenyl)ethyl)-N,3-dimethyl-10-oxo-1,2,3,4,7,8,9,10-octahydropyrido[4′,3′:3,4]pyrazolo[1,5-a]pyrazine-7-carboxamide] registered a cytotoxic concentration (CC50) at 3 days in series [1] above 50 µM. The same molecule registered an EC50 with HBV (setting [2]) of 0.058 µM.
Molecule `CC(=O)NC[C@@H]1CN([C@@H](C)c2ccc(OC(F)F)cc2)C(=O)c2c3c(nn21)C[C@@H](C)N(C(=O)c1ccc(Cl)c(C#N)c1)C3` (single isomer, unassigned) [Compound 13B, N-(((3R,7R*)-2-(4-chloro-3-cyanobenzoyl)-9(S*)-1-(4-(difluoromethoxy)phenyl)ethyl)-3-methyl-10-oxo-1,2,3,4,7,8,9,10-octahydropyrido[4′,3′:3,4]pyrazolo[1,5-a]pyrazin-7-yl)methyl)acetamide] gave a CC50 at 3 days in series [1] above 50 µM. In addition, in the series with HBV (setting [2]), it took 0.167 µM to reach a half-maximal effect (EC50).
Molecule `CC(=O)NC[C@H]1CN([C@@H](C)c2ccc(OC(F)F)cc2)C(=O)c2c3c(nn21)C[C@@H](C)N(C(=O)c1ccc(Cl)c(C#N)c1)C3` (single isomer, unassigned) [Compound 13D, N-(((3R,7S*)-2-(4-chloro-3-cyanobenzoyl)-9-((S*)-1-(4-(difluoromethoxy)phenyl)ethyl)-3-methyl-10-oxo-1,2,3,4,7,8,9,10-octahydropyrido[4′,3′:3,4]pyrazolo[1,5-a]pyrazin-7-yl)methyl)acetamide] returned a CC50 at 3 days in series [1] above 50 µM. Also, the EC50 in the series with HBV (setting [2]) came out at 0.344 µM.
In the series with HepG2 or HepG2 117 cells, `CC(c1ccc(OC(F)F)cc1)n1ncn2nc3c(c2c1=O)CN(C(=O)c1ccc(Cl)c(C(F)(F)F)c1)[C@H](C)C3` (stereo in doubt) [Compound 7B, (R)-9-(4-chloro-3-(trifluoromethyl)benzoyl)-2-((S*)-1-(4-(difluoromethoxy)phenyl)ethyl)methyl-7,8,9,10-tetrahydropyrido[4′,3′:3,4]pyrazolo[1,5-d][1,2,4]triazin-1(2H)-one] registered a CC50 above 50 µM. This molecule also showed an EC50 in the series with HBV of 0.262 µM.
`CC(c1ccc(OC(F)F)cc1)n1ncn2nc3c(c2c1=O)CN(C(=O)c1ccc(Cl)c(C#N)c1)[C@H](C)C3` (stereo in doubt) [Compound 9A, 2-Chloro-S—((R)-2-((R*)-1-(4-(difluoromethoxy)phenyl)ethyl)-8-methyl-1-oxo-1,2,7,8,9,10-hexahydropyrido[4′,3′:3,4]pyrazolo[1,5-d][1,2,4]triazine-9-carbonyl)benzonitrile] displayed a CC50 in the series with HepG2 or HepG2 117 cells above 50 µM. This molecule registered an EC50 with HBV of 0.553 µM.
`CNC(=O)[C@H]1Cn2nc3c(c2C(=O)N1Cc1ccc(OC(F)F)cc1)CN(C(=O)c1ccc(Cl)c(C#N)c1)[C@H](C)C3` [Compound 3A]: the CC50 at 3 days in series [1] was above 50 µM. The molecule further registered an EC50 with HBV (setting [2]) of 0.427 µM.
Regarding `CC(c1ccc(OC(F)F)cc1)N1C(=O)c2c3c(nn2CC1CO)C[C@@H](C)N(C(=O)c1ccc(Cl)c(C#N)c1)C3` (stereo partly drawn) [Compound 4, 2-Chloro-5-((3R)-9-(1-(4-(difluoromethoxy)phenyl)ethyl)-8-(hydroxymethyl)-3-methyl-10-oxo-1,2,3,4,7,8,9,10-octahydropyrido[4′,3′:3,4]pyrazolo[1,5-a]pyrazine-2-carboaryl)benzonitrile], in series [1], half-maximal cytotoxicity (CC50 at 3 days) was put at 25 µM. In addition, the EC50 with HBV (setting [2]) is 0.227 µM.
Molecule `CNC(=O)CC[C@H]1Cn2nc3c(c2C(=O)N1Cc1ccc(OC(F)F)cc1)CN(C(=O)c1ccc(Cl)c(C#N)c1)[C@H](C)C3` [Compound 5, 3-((3R,8S)-2-(4-chloro-3-cyanobenzoyl)-9-(4-(difluoromethoxy)benzyl)-3-methyl-10-oxo-1,2,3,4,7,8,9,10-octahydropyrido[4′3′:3,4]pyrazolo[1,5-a]pyrazin-8-yl)-N-methylpropanamide] returned a CC50 at 3 days in series [1] above 50 µM. In the series with HBV (setting [2]), this molecule returned an EC50 of 0.414 µM.
Consider `CC(c1ccc(OC(F)F)cc1)N1CC(CO)n2nc3c(c2C1=O)CN(C(=O)c1ccc(Cl)c(C#N)c1)[C@H](C)C3` (stereo partly drawn) [Compound 12, 2-Chloro-5-((3R)-9-(1-(4-(difluoromethoxy)phenyl)ethyl)-7-(hydroxymethyl)-3-methyl-10-oxo-1,2,3,4,7,8,9,10-octahydropyrido[4′,3′:3,4]pyrazolo[1,5-a]pyrazine-2-carbonyl)benzonitrile], for which the CC50 at 3 days in series [1] came out at 24.9 µM. In addition, the midpoint of the response in the series on HBV (setting [2]), the EC50, lay at 0.068 µM.
